IC50 data for three compounds are collected here from patent US20240018157A1, “CYCLIC COMPOUNDS AND METHODS OF USING SAME” (Schrödinger, Inc., priority 2019, published 2024).

SMILES strings stand for the structures.

The target in test [1] is T1, full-length MALT1 protein His-MALT1(1-824) (Homo sapiens (Human), UniProt Q9UDY8). Description: MALT1 protease assay, Assay 2 (1 nM MALT1, Ac-LRSR-AMC substrate). It is filed as biochemical. The following applies: 1 nM MALT1, 50 μM Ac-LRSR-AMC, 2 h pre-incubation, 8 hr incubation at RT. The essentials:
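His-MALT1(1-824) from baculovirus-infected insect cells at 1 nM, preincubated 2 h at RT with compound (0.1% DMSO), then 50 μM Ac-LRSR-AMC in 50 mM Tris pH 7.5, 600 mM sodium citrate, 1 mM DTT, 1 mM EDTA, 0.05% BSA. Fluorescence (ex 355/em 460 nm) after 8 h at RT, normalized to enzyme and substrate-only controls. IC50 and Hill coefficient by non-linear regression.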

Test [2] has as its target T1, full-length MALT1 protein His-MALT1(1-824). Description: MALT1 protease assay, Assay 1 (2 nM MALT1, Ac-LRSR-AMC substrate). In kind it is biochemical. Particulars: 2 nM MALT1, 50 μM Ac-LRSR-AMC, 2 h pre-incubation, 8 hr incubation at RT. The method, then:
MALT1 protease activity was assessed in an in vitro assay using a tetrapeptide as substrate and full-length MALT1 protein His-MALT1(1-824) purified from baculovirus-infected insect cells.
The final assay buffer includes 1 nM (Assay 2) or 2 nM (Assay 1) of MALT1 full-length protein, 50 μM Ac-LRSR-AMC substrate, 50 mM Tris pH 7.5, 600 mM Sodium Citrate, 1 mM DTT, 1 mM EDTA, and 0.05% BSA in 384-well plate format using black microtiter square well plates (Optiplate 384-F, Perkin Elmer).
Test compounds were dissolved in 100% DMSO at stock of 10 mM, with final DMSO concentration 0.1%. Test compounds were pre-incubated with MALT1 protein for 2 h at room temperature. Substrate was added after the pre-incubation and fluorescence signal was measured using Envision at excitation 355 nm and emission 460 nm after 8 hr incubation at RT. Increase in the assay signal was linear over this period and proportional with increase in the enzyme content.
The fluorescence units were transformed to percentage of remaining activity by using the high control (HC, median of fluorescence signal from wells containing MALT1 protein, substrate, and DMSO) and low control (LC, median of fluorescence signal from wells with substrate only) with the formula below: […]
IC50 and Hill coefficient were obtained using Graph Pad Prism (Graph Pad software, Inc, USA) with non-linear regression analysis.

In test [3] the test system is IL10 secretion, OCI-LY10 cells. Description: Human IL10 secretion assay, Assay 1 (HTRF). Particulars: 24 h incubation, read-out: IL-10 Secretion IC50 [nM] Assay 1. It is filed as cell-based. In a few lines:
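OCI-LY10 cells (3×10^5/well, IMEM with 20% FBS) were treated with 3-fold serial compound dilutions from a 10 mM stock, 0.1% DMSO final, for 24 h. Secreted IL10 in medium was quantified by HTRF, normalised to DMSO-treated and no-cell controls, and IC50 (nM) derived by 4-parameter fit.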
(Time-resolved FRET reads energy transfer from a long-lived donor to a nearby acceptor.)

T1 sequence (Q9UDY8 whole entry): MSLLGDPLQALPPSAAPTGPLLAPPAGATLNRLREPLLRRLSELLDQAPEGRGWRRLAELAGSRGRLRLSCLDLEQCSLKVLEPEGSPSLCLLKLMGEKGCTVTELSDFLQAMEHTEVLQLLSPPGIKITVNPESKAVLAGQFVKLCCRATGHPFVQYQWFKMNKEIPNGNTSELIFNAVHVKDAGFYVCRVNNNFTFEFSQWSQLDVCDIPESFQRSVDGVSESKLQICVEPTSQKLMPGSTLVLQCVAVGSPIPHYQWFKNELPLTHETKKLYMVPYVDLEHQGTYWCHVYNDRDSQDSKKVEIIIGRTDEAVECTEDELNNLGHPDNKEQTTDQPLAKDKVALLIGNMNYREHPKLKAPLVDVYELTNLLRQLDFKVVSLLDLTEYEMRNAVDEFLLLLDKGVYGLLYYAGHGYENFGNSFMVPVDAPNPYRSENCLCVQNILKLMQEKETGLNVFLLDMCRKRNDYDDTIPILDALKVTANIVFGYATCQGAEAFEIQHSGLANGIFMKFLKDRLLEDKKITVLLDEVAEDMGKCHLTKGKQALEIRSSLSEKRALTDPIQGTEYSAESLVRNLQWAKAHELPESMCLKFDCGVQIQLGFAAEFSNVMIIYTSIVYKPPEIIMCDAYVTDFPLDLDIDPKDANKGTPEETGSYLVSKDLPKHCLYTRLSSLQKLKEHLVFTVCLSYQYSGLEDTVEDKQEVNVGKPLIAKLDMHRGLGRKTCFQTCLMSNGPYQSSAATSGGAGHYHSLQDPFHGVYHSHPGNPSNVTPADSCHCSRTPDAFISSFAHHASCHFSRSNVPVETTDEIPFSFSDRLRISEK

In general, IC50 refers to the point on the concentration scale where inhibition reaches its midpoint. As for `C[C@@]1(C(F)(F)F)CN(C(=O)NC2CCC(F)(F)CC2)c2cnc3cc(Cl)nn3c21` [compound 37, (R)-2-chloro-N-(4,4-difluorocyclohexyl)-8-methyl-8-(trifluoromethyl)-7,8-dihydro-6H-pyrazolo[1,5-a]pyrrolo[2,3-e]pyrimidine-6-carboxamide], the IC50 in test [1] and in test [2] was 100 to 1000 nM each time.
As to `C[C@@]1(C(F)(F)F)CN(C(=O)Nc2cnc(C#N)c(Cl)c2)c2cnc3cc(Cl)nn3c21` [compound 42, (R)-2-chloro-N-(5-chloro-6-cyanopyridin-3-yl)-8-methyl-8-(trifluoromethyl)-7,8-dihydro-6H-pyrazolo[1,5-a]pyrrolo[2,3-e]pyrimidine-6-carboxamide], the IC50 in test [1] lay in the range of 10 to 100 nM; in test [2], 10 to 100 nM; in test [3], 100 to 1000 nM.
Regarding `COc1nc(-n2nccn2)c(Cl)cc1NC(=O)N1C[C@@](C)(C(F)(F)F)c2c1cnc1cc(Cl)nn21` [compound 52, (R)-2-chloro-N-(5-chloro-2-methoxy-6-(2H-1,2,3-triazol-2-yl)pyridin-3-yl)-8-methyl-8-(trifluoromethyl)-7,8-dihydro-6H-pyrazolo[1,5-a]pyrrolo[2,3-e]pyrimidine-6-carboxamide], the IC50 in test [2] was less than 10 nM; in test [3], 10 to 100 nM.
